Test results reported in US20220305019A1, “PARAXANTHINE-BASED COMPOSITIONS FOR PROMOTING WEIGHT LOSS” (Ingenious Ingredients, LP, priority 2021, published 2022).

Experiment: Confidence visual analog scale (VAS) after oral ingestion, crossover, two participants
Format: in vivo, human
Parameters: Confidence (Visual Analog Scale) / Confidence VAS MEAN: scale not given here
Settings: 100 mg PX
Description: All supplements were orally ingested with 8 fluid ounces of cold tap water. The order of administration for all interventions was randomized using a random allocation software to ensure randomization and to avoid order effects. After ingestion, participants completed all assessments in an identical fashion 30, 60, 90, 120, and 180 minutes after ingestion of their assigned supplement. All study visits took place between 0600-1000 hours. At least 72 hours of rest took place between each condition.

Cn1c(=O)[nH]c2ncn(C)c2c1=O [PX, paraxanthine]
effect on confidence: failed to increase confidence | Confidence (Visual Analog Scale) (30 min, person one): 70 | Confidence (Visual Analog Scale) (30 min, person two): 70 | Confidence (Visual Analog Scale) (60 min, person one): 80 | Confidence (Visual Analog Scale) (60 min, person two): 70 | Confidence (Visual Analog Scale) (90 min, person one): 89 | Confidence (Visual Analog Scale) (90 min, person two): 65 | Confidence (Visual Analog Scale) (120 min, person one): 81 | Confidence (Visual Analog Scale) (120 min, person two): 75 | Confidence (Visual Analog Scale) (180 min, person one): 90 | Confidence (Visual Analog Scale) (180 min, person two): 70 | Confidence VAS MEAN (Average of both): 76.0 | Confidence VAS MEAN (person one): 82.0 | Confidence VAS mean Δ vs. PLA (person one): +0.6 | Confidence VAS MEAN (person two): 70.0 | Confidence VAS mean Δ vs. PLA (person two): −1.0
